Test results: patent US20070015779A1, “COMPOSITIONS AND TREATMENTS FOR INHIBITING KINASE AND/OR HMG-COA REDUCTASE” (priority 2005, published 2007)
Several values for one entry are separate records, joined by “and”; a condition that tells them apart may be missing. Identical values can stand only once. Counter-ions that a name gives are not always drawn.

Key:
[1] = system: oxazolone-induced mouse ear swelling; assay: Model for inhibition of topical inflammation (oxazolone-induced mouse ear swelling); type: in vivo; details: BALB/c mice, ear thickness 24 hours after oxazolone challenge
Description: Model for Inhibition of Topical Inflammation. […] Left ears were untreated. The thickness of both ears of each animal was measured with a Dyer model micrometer gauge 24 hours after oxazolone challenge, and the net increase in thickness of right ears versus left ears was calculated for each animal. Percent inhibition was calculated according to the formula: [(Iv−It)/Iv]×100, where Iv and It respectively refer to the average net increase in right ear thickness (mm) for vehicle and candidate compound treated mice.

[2] = target: T1, human recombinant p38α protein kinase (Homo sapiens, UniProt Q16539); assay: Human p38α MAP kinase inhibition assay (cell-free); type: biochemical; details: inhibition of phosphorylation of myelin basic protein by recombinant human p38α MAP kinase by 50%; Table III; read-out: IC50 p38α MAPK
T1 construct: purchased UBI (Upstate Biotechnology) 14-251; host or cells: E. coli
Description: In vitro cell-free p38α MAP kinase inhibition assays were conducted by the method as described in Clerk et al., FEBS Lett., 426:93-96 (1998) for a number of lactones in formulas I/IIa/IIb. Briefly, human recombinant p38α protein kinase expressed in E. coli (UBI #14-251) was used. Myelin basic protein (MBP, UBI #13-110) was employed as substrate, and microtiter plate wells were coated with MBP (0.01 mg/ml) overnight at 4° C. Candidate compound and/or vehicle was preincubated with 0.075 μg/mL enzyme in modified HEPES buffer pH 7.4 at 25° C. for 15 minutes. The reaction was initiated by addition of 100 μM ATP and allowed to proceed for another 60 minutes. The reaction was terminated by aspirating the solution. Phosphorylated MBP was detected by incubation with a mouse monoclonal IgG2a anti-phosphoMBP antibody. Bound anti-phosphoMBP antibody was quantitated by incubation with a HRP conjugated goat anti-mouse IgG.

[3] = target: T2, rat liver HMG-CoA reductase (Rattus norvegicus, UniProt P51639); assay: Cell-free HMG-CoA reductase inhibition assay; type: biochemical; details: concentration required to inhibit rat liver HMG-CoA reductase by 50%; read-out: IC50 HMG-CoA R
T2 sequence (P51639 1-887): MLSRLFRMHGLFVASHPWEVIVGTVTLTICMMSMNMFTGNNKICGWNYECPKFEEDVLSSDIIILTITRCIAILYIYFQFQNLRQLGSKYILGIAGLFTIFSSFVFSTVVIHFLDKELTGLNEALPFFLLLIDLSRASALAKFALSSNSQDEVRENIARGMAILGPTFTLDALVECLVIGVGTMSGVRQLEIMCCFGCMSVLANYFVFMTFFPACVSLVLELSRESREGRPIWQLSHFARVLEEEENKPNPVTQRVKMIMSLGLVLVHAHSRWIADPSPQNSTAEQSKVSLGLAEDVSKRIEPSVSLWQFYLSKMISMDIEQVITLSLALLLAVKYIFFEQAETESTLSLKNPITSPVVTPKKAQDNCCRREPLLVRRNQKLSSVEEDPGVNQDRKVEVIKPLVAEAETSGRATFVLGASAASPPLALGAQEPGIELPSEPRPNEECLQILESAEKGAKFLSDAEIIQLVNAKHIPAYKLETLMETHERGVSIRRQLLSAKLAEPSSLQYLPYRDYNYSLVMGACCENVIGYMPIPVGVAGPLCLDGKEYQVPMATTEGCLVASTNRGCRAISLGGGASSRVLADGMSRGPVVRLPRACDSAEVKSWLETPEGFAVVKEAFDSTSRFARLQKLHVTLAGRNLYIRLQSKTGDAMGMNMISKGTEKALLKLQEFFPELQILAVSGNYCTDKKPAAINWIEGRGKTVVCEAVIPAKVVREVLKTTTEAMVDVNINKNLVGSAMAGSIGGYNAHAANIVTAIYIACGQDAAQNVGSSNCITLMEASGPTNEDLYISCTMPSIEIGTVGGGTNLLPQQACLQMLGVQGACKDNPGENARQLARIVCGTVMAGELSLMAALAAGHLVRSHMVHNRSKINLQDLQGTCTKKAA
Description: An example of a cell-free HMG-CoA reductase assay involves radiometric procedures described in Shum et al., Ther. Drug Monit. 20:41-49 (1998), incorporated herein by reference. Briefly, about 150 μg/mL of HMG-CoA reductase can be incubated with a candidate compound, together with about 12 μM [^14C]HMG-CoA and about 200 μM NADPH in about 200 μL 0.2M phosphate buffer (pH about 7.2) for about 0.5 h at about 37° C. The [^14C]mevalonate that forms can be converted under acidic conditions to [^14C]mevalonolactone and separated from un-reacted substrate, for example, by ion-exchange chromatography, and then quantified, for example, by liquid scintillation counting.

[4] = system: LPS-induced TNF-α release from human peripheral blood mononuclear cells; assay: Whole cell LPS-stimulated TNF-α release assay; type: cell-based; details: inhibition of LPS-induced TNF-α release from human peripheral blood mononuclear cells by 50%
Description: The procedure as described in Welker et al., Int. Arch. Allergy and Immunol. 109:110-115 (1996) can be followed. Briefly, a candidate compound and/or vehicle can be preincubated with human peripheral blood mononuclear leukocytes (PBML, 5×10^5/ml) cells in AIM-V medium pH 7.4 for 2 hours. Lipopolysaccharide (LPS, 25 ng/ml) can be added to stimulate the cells, which can be incubated overnight at 37° C. TNF-α cytokine levels in the conditioned medium can then be quantitated using a sandwich ELISA kit.

[5] = dose 2 × 0.3 mg topical to right ear
[6] = dose 2 × 2 mg topical to right ear
[7] = dose 2 × 1 mg topical to right ear

T1 sequence (Q16539 whole entry): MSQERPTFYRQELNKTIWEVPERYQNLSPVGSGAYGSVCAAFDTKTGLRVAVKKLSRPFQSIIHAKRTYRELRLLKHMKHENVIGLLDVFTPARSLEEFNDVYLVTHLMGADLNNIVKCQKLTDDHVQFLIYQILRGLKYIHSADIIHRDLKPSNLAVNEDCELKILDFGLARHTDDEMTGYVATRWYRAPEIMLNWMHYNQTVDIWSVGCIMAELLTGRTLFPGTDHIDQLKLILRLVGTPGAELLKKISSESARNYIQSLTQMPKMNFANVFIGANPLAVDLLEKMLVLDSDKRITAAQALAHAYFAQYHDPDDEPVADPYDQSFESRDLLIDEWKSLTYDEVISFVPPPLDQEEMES

O=C([O-])C[C@H](O)C[C@H](O)/C=C/c1c(C2CC2)nc2ccccc2c1-c1ccc(F)cc1.O=C([O-])C[C@H](O)C[C@H](O)/C=C/c1c(C2CC2)nc2ccccc2c1-c1ccc(F)cc1.[Ca+2] [Pitavastatin calcium]
% Inh. [1, 5]: 9%
% Inh. [1, 6]: 60%

COc1ccc2c(c1)c(CC(=O)O)c(C)n2C(=O)c1ccc(Cl)cc1 [Indomethacin]
% Inh. [1, 5]: 44%

CC(C)n1c(/C=C/C(O)CC(O)CC(=O)O)c(-c2ccc(F)cc2)c2ccccc21 (centres unmarked) [Fluvastatin sodium]
% Inh. [1, 5]: 28%

CCC(C)c1nn(-c2ccnc(Nc3ccccc3)c2)c(-c2ccc(F)cc2)c1/C=C/[C@@H](O)C[C@@H](O)CC(=O)O (stereo partly drawn) [Example 10a, (3R,5S,E)-7-(3-sec-butyl-5-(4-fluorophenyl)-1-(2-(phenylamino)pyridin-4-yl)-1H-pyrazol-4-yl)-3,5-dihydroxyhept-6-enoic acid calcium salt]
IC50 [2]: 11 µM
IC50 [3]: 0.003 µM
IC50 [4]: 21 µM

CC(C)c1c(C(=O)Nc2ccccc2)c(-c2ccccc2)c(-c2ccc(F)cc2)n1CC[C@@H](O)C[C@@H](O)CC(=O)O [Atorvastatin sodium]
% Inh. [1, 5]: 9%
% Inh. [1, 7]: 31%
% Inh. [1, 6]: 63%

CC[C@H](C)C(=O)O[C@H]1C[C@H](O)C=C2C=C[C@H](C)[C@H](CC[C@@H](O)C[C@@H](O)CC(=O)O)[C@H]21 [Pravastatin sodium]
% Inh. [1, 5]: 24%

CC(C)c1c(C(=O)Nc2ccccc2)c(-c2ccccc2)c(-c2ccc(F)cc2)n1CC[C@@H]1C[C@@H](O)CC(=O)O1 [Atorvastatin lactone]
% Inh. [1, 5]: 40%
% Inh. ([1]; dose 2 × 0.3 mg topical to right ear, listed as atorvastatin lactone): 50% and 58% and 40%
% Inh. [1, 7]: 58%
% Inh. [1, 6]: 50%

O=C(O)C[C@H](O)C[C@H](O)CCc1c(-c2ccccc2)nn(-c2ccnc(Nc3ccccc3)n2)c1-c1ccccc1 [Example 11c, (3R,5R)-7-(3,5-diphenyl-1-(2-(phenylamino)pyrimidin-4-yl)-1H-pyrazol-4-yl)-3,5-dihydroxyheptanoic acid]
IC50 [4]: 18 µM

CC(C)c1nc(N(C)S(C)(=O)=O)nc(-c2ccc(F)cc2)c1/C=C/[C@@H](O)C[C@@H](O)CC(=O)O [Rosuvastatin sodium]
% Inh. [1, 5]: 20%
